pIC50, pKd: −log10 of the molar value.
How the values were obtained:
[1] = biological target: T1, CDK7/CyclinH/MAT1 (Homo sapiens, UniProt P50613); experiment: LanthaScreen Eu Kinase Binding Assay, CDK7; details: tracer 236, read-out: CDK7 (activity range), Kd
T1 construct: purchased Carna Biosciences
Experimental: (§1) This protocol describes how the LanthaScreen Eu Kinase Binding Assay was performed to determine dissociation constants (Kd) of compounds of general formula (I) and CDK/Cyclin complexes. The principle behind this assay is based upon the binding and displacement of an Alexa Fluor 647-labeled tracer, which binds to the active site of kinases. Binding of the tracer to the kinase is detected using a Eu-labeled antibody. Simultaneous binding of both the tracer and antibody to the kinase gives rise to a FRET-signal. Binding of an inhibitor to the kinase competes for binding with the tracer, resulting in a loss of FRET.
(§2) The compounds of general formula (I) summarized in Table 1 were diluted from a 10 mM DMSO stock solution 1:10 in a total volume of 15 μL DMSO. This compound predilution was then serial diluted 1:3 over 8 steps in DMSO and briefly spun down. Each compound solution was now diluted 1:33.33 in kinase buffer (HEPES: 20 mM, pH: 8.0; MgCl2: 10 mM; DTT: 1 mM; Brij-35: 0.01%), mixed thoroughly and spun down. For every sample, 5 μL of the diluted compound were mixed with 5 μL tracer working solution (e.g. 60 nM tracer 236 in kinase buffer for CDK2/Cyclin A) and 5 μL CDK/Cyclin/Anti-GST-AB-working solution (e.g. 15 nM CDK2/Cyclin A, 1:250 dilution of Anti-GST-AB in kinase buffer) in a well of a small volume 384 well plate (Corning Incorporated, Corning, N.Y., USA; order no. 3673). The tracer concentration was adjusted to its dissociation constant (Kd) for the CDK/Cyclin, which was 30 nM for CDK2/Cyclin A, CDK7/Cyclin H and CDK9/Cyclin T1, 20 nM for CDK8/Cyclin C, and 35 nM for CDK9/Cyclin K. For negative controls, in each well 5 μL of DMSO working solution (3% DMSO diluted in kinase buffer) was mixed with 5 μL Anti-GST-AB working solution (e.g. 1:250 dilution of Anti-GST-AB in kinase buffer for CDK2/Cyclin A) and 5 μL Tracer working solution (e.g. 60 nM Tracer 236 in kinase buffer for CDK2/Cyclin A). For positive controls, in each well 5 μL of DMSO working solution (3% DMSO diluted in kinase buffer) was mixed with 5 μL CDK/Cyclin/Anti-GST-AB-working solution: (e.g. 15 nM CDK2/Cyclin A, 1:250 dilution of Anti-GST-AB in kinase buffer) and 5 μL Tracer working solution (e.g. 60 nM Tracer 236 in kinase buffer for CDK2/Cyclin A). Positive and negative controls were calculated from at least 8 different sample wells. The 384 well plates were mixed in a Teleshaker plate mixer (Beckman Coulter, Brea, Calif., USA) at 2000 rpm for 40 sec, and incubated for 1 h at room temperature before reading. The FRET signal was measured at 340 nm excitation, 665 nm and 615 nm emission (for the kinase tracer and LanthaScreen Eu-AB, respectively) with an Envision spectrophotometer (Perkin Elmer, Waltham, Mass., USA) with 50 μs delay and 300 μs integration time. Kd values were determined from the sigmoidal dose response curves with the software Quattro Workflow (Quattro GmbH, Munich, Germany).

[2] = biological target: T2, CDK9/Cyclin T1 (Homo sapiens, UniProt P50750); experiment: LanthaScreen Eu Kinase Binding Assay, CDK9/Cyclin T1; details: tracer 236, read-out: CDK9/Cyclin T1 (activity range), Kd
T2 construct: purchased Invitrogen
T2 sequence (P50750 whole entry): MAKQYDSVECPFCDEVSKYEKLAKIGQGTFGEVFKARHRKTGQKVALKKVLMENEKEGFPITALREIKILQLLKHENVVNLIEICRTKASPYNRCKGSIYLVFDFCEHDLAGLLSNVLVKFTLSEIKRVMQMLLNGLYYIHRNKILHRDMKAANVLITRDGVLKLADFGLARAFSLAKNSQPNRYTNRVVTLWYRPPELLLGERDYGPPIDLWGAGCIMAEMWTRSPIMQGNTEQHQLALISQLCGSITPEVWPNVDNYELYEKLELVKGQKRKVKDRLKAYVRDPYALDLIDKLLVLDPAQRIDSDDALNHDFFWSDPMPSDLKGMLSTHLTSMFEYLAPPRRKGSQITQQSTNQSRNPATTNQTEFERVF
T2 sequence (O60563 whole entry partner): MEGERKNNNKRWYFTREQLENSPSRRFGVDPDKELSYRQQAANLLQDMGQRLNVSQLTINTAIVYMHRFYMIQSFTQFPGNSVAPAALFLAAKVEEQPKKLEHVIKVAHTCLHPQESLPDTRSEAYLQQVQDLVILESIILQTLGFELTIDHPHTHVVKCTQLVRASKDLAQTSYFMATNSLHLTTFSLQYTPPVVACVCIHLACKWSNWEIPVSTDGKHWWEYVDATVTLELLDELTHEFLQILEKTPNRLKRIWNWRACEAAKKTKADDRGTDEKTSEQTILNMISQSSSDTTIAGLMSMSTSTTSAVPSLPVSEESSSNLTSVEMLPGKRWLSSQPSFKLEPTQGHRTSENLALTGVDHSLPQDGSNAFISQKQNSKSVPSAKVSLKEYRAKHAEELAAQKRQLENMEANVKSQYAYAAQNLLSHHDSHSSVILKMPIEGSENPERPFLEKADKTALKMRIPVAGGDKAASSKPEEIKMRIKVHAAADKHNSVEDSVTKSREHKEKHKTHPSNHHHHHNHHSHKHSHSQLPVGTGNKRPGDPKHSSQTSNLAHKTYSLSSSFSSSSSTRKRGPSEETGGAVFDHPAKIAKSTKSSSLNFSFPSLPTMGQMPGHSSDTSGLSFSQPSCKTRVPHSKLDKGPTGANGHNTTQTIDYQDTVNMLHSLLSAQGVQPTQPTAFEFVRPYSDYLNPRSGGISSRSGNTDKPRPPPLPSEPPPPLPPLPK
Experimental: as §1, §2

[3] = biological target: T3, CDK2/CyclinA (Homo sapiens, UniProt P24941); experiment: LanthaScreen Eu Kinase Binding Assay, CDK2; details: tracer 236, read-out: CDK2 (activity range), Kd
T3 construct: purchased Proqinase
Experimental: as §1, §2

[4] = biological target: T3, CDK2/CyclinA; experiment: Lance Ultra KinaSelect Assay, CDK2; assay type: biochemical; details: ULight MBP substrate, ATP 3 μM; read-out: CDK2 LANCE assay (activity range), IC50
Experimental: (§3) This protocol describes how the Lance Ultra KinaSelect Assay was performed to determine half maximal inhibitory concentration (IC50) of compounds of general formula (I) and CDK/Cyclin complexes. The principle behind this enzymatic assay is based upon the phosphorylation of the ULight-Peptide Substrat. It is detected by using a specific EU-labeled anti-phospho peptide antibody. The binding of the Eu-labeled anti-phospho peptide antibody to the phosphorylated ULight labeled peptide gives rise to a FRET-signal. Binding of an inhibitor to the kinase prevents phosphorylation of the ULight-MBP Substrat, resulting in a loss of FRET.
(§4) The compounds of general formula (I) summarized in Table 5 were diluted from a 10 mM DMSO stock solution 1:10 in a total volume of 15 μL DMSO. This compound predilution was then serial diluted 1:3 over 8 steps in DMSO and briefly spun down. Each compound solution was now diluted 1:20 in Enzymatic Buffer (HEPES: 50 mM, pH: 7.5; MgCl2: 10 mM; EGTA: 1 mM; DTT: 2 mM; Tween-20: 0.01%), mixed thoroughly and spun down. For every sample, 2 μL of the diluted compound were mixed with 6 μL CDK/Cyclin/Substrat solution and 2 μL ATP solution in a well of a small volume 384 well plate (Corning Incorporated, Corning, N.Y., USA; order no. 3673). The CDK/Cyclin was diluted to the appropriate concentration (see Table 3) and the ATP concentration was adjusted to its […] for the CDK/Cyclin, which was 3 μM for CDK2/Cyclin A, 20 μM for CDK1/Cyclin B1, 25 μM for CDK7/Cyclin H and CDK9/Cyclin T1, 55 μM for CDK6/Cyclin D3, 90 μM for CDK4/Cyclin D1 and 125 μM for CDK9/Cyclin K. For negative controls, in each well 2 μL of DMSO solution (1% final DMSO assay concentration) was mixed with 6 μL substrate solution (50 nM ULight MBP final assay concentration) and 2 μL ATP solution (appropriate final concentration see Table 3). For positive controls, in each well 2 μL of DMSO solution (1% final DMSO assay concentration) was mixed with 6 μL CDK/Cyclin/Substrat (appropriate final concentration see Table 3) and 2 μL Tracer ATP solution (appropriate final concentration see Table 3). Positive and negative controls were calculated from at least 8 different sample wells. The 384 well plates were mixed in a Teleshaker plate mixer (Beckman Coulter, Brea, Calif., USA) at 2000 rpm for 40 sec, and incubated for 1 h at room temperature. Before reading, 10 μL the detection buffer (Lance Detection Buffer 1×; EDTA: […]; Eu-Anti-P-MBP: see Table 3) was added. The FRET signal was measured at 340 nm excitation, 665 nm and 615 nm emission (for the kinase tracer and LanthaScreen Eu-AB, respectively) with an Envision spectrophotometer (Perkin Elmer, Waltham, Mass., USA) with 50 μs delay and 300 μs integration time. IC50 values were determined from the sigmoidal dose response curves with the software Quattro Workflow (Quattro GmbH, Munich, Germany).

[5] = biological target: T1, CDK7/CyclinH/MAT1; experiment: Lance Ultra KinaSelect Assay, CDK7; assay type: biochemical; details: ULight MBP substrate, ATP 25 μM; read-out: CDK7 LANCE assay (activity range), IC50
Experimental: as §3, §4

[6] = biological target: T4, CDK9 (Homo sapiens, UniProt P50750); experiment: Lance Ultra KinaSelect Assay, CDK9; assay type: biochemical; details: ULight MBP substrate; cyclin partner not stated in Table 5; read-out: CDK9 LANCE assay (activity range), IC50
T4 construct: purchased Invitrogen
T4 sequence (P50750 whole entry): as the sequence (P50750 whole entry) above
Experimental: as §3, §4

T1 sequence (P50613 whole entry): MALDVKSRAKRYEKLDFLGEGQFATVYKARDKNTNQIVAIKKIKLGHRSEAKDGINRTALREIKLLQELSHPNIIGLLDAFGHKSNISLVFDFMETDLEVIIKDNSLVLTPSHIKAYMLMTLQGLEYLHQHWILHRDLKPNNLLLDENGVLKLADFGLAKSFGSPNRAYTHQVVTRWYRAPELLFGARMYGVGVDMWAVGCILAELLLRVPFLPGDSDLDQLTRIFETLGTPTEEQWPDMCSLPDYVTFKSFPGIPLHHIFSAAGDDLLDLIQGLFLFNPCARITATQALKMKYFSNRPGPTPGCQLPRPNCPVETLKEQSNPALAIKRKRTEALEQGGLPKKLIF
T1 sequence (P51946 whole entry partner): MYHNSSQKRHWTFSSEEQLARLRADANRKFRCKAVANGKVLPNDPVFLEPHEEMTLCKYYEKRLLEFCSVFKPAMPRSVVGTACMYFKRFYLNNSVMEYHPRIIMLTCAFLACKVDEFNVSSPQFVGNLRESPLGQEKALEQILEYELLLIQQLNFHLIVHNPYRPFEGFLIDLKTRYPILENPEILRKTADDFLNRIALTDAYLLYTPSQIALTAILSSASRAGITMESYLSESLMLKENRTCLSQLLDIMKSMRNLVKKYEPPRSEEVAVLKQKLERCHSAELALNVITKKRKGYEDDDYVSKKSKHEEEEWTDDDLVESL
T1 sequence (P51948 whole entry partner): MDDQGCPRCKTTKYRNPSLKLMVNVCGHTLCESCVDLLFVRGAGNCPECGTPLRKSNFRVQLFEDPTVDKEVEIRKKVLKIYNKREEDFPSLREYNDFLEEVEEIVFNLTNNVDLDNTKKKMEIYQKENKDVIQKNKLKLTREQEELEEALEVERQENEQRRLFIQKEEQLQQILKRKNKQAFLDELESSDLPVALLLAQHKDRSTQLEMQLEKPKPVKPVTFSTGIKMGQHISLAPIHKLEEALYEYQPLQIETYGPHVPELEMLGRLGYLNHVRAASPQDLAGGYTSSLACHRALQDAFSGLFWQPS

Structure (SMILES): COc1cc(F)ccc1-c1ccnc(Nc2cccc(S(=O)(=O)NC(C)(C)C)c2)c1 [Compound D2, N-(tert-Butyl)-3-[(4-(4-fluoro-2-methoxyphenyl)pyridin-2-yl)amino]-benzenesulfonamide]
- pKd [1]: < 5.00
- pKd [2]: 5.00 to 6.00

Structure (SMILES): COc1ccccc1-c1ccnc(Nc2cccc(CS(N)(=O)=O)c2)c1 [Compound G2, [3-((4-(2-Methoxyphenyl)pyridin-2-yl)amino)phenyl]-methanesulfonamide]
- pKd [1]: < 5.00
- pKd [3]: > 7.00
- pIC50 [4]: 6.00 to 7.00
- pKd [2]: > 7.00
- pIC50 [5]: < 5.00
- pIC50 [6]: > 7.00

Structure (SMILES): COc1ccccc1-c1ccnc(Nc2cccc(CCS(N)(=O)=O)c2)c1 [Compound H1, 2-[3-((4-(2-Methoxyphenyl)pyridin-2-yl)amino)phenyl]-ethanesulfonamide]
- pKd [1]: < 5.00
- pKd [3]: 6.00 to 7.00
- pIC50 [4]: 5.00 to 6.00
- pKd [2]: > 7.00
- pIC50 [5]: < 5.00
- pIC50 [6]: > 7.00

— US9242937B2, “Pharmaceutically active disubstituted pyridine derivatives” (Bayer Intellectual Property GmbH, priority 2011, dated 2016)
